According to ChEMBL document CHEMBL1649073, “Design and optimization of benzimidazole-containing transient receptor potential melastatin 8 (TRPM8) antagonists” (J Med Chem, 2011):

Columns and labels:
[1] = Cmax in rat at 10 mg/kg, po; format: ADME, organism-based; parameters: dose 10 mg/kg, route oral; conditions: in vivo
Rattus norvegicus = assay: Volume of distribution at steady state in rat at 10 mg/kg, po; format: ADME, organism-based; parameters: dose 10 mg/kg, route oral; conditions: in vivo
[2] = Cmax in dog at 10 mg/kg, po; conditions: in vivo
[3] = Plasma concentration in Sprague-Dawley rat at 1 to 30 mg/kg, po after 4 hrs; format: ADME, organism-based; parameters: dose 1-30 mg/kg, route oral
[4] = Drug level in rat plasma at 5.6 mg/kg, po after 150 mins; format: ADME, organism-based; parameters: dose 5.6 mg/kg, route oral; conditions: read-out: Drug uptake
[5] = Drug level in rat brain at 3 mg/kg, po after 150 mins; format: ADME, organism-based; parameters: dose 3 mg/kg, route oral; conditions: read-out: Drug uptake
[6] = Drug level in rat plasma at 10 mg/kg, po after 150 mins; format: ADME, organism-based; parameters: dose 10 mg/kg, route oral; conditions: read-out: Drug uptake
[7] = Volume of distribution at steady state in dog at 2 mg/kg, iv; format: ADME, organism-based, Canis lupus familiaris; parameters: dose 2 mg/kg, route intravenous; conditions: in vivo, read-out: Vdss
[8] = Drug level in rat brain at 5.6 mg/kg, po after 150 mins; format: ADME, organism-based; parameters: dose 5.6 mg/kg, route oral; conditions: read-out: Drug uptake
[9] = AUC in rat at 10 mg/kg, po; format: ADME, organism-based; parameters: dose 10 mg/kg, route oral; conditions: plasma
[10] = Drug level in rat brain at 10 mg/kg, po after 150 mins; format: ADME, organism-based; parameters: dose 10 mg/kg, route oral; conditions: read-out: Drug uptake
[11] = Volume of distribution at steady state in rat at 2 mg/kg, iv; format: ADME, organism-based; parameters: dose 2 mg/kg, route intravenous; conditions: in vivo, read-out: Vdss
[12] = Oral bioavailability in rat at 10 mg/kg; format: ADME, organism-based; conditions: in vivo
Canis familiaris [13] = assay: Oral bioavailability in dog at 10 mg/kg; conditions: in vivo
[14] = Plasma concentration in guinea pig at 10 mg/kg, iv after 5 mins; format: ADME, organism-based, Cavia porcellus; parameters: dose 10 mg/kg, route intravenous
Canis familiaris [15] = assay: AUC in dog at 10 mg/kg, po; conditions: in vivo
[16] = Drug level in rat plasma at 3 mg/kg, po after 150 mins; format: ADME, organism-based; parameters: dose 3 mg/kg, route oral; conditions: read-out: Drug uptake

Cmax [1]	Vdss (Rattus norvegicus)	Cmax [2]	concentration at 4 h [3]	concentration at […] [4]	concentration at […] [5]	concentration at […] [6]	Vd [7]	concentration at […] [8]	AUC [9]	concentration at […] [10]	Vd [11]	bioavailability [12]	F (Canis familiaris [13])	concentration at 5 min [14]	AUC (Canis familiaris [15])	concentration at […] [16]	Compound
230 ng/mL	13.6 L/kg																FC(F)(F)c1ccccc1-c1ccc2nc(C3=NOC4(CCCCC4)C3)[nH]c2c1
1260 ng/mL		1640 ng/mL	254 ng/mL	662 ng/mL	175 ng/g	1040 ng/mL	4.43 L/kg	414 ng/g	12300 ng·h/mL	638 ng/g	2.92 L/kg	96%	45%	18200 ng/mL	5252 ng·h/mL	295 ng/mL	FC(F)(F)c1ccccc1-c1cc(C(F)(F)F)c2[nH]c(C3=NOC4(CCCCC4)C3)nc2c1
